Data: patent publication US20110318768A1, “METHOD FOR DETERMINING SENSITIVITY OF TUMOR CELLS TO TYROSINE KINASE INHIBITOR AND COMPUTER PROGRAM PRODUCT” (SYSMEX CORPORATION, priority 2010, published 2011)

Tests used:
Experiment in all cases: Tyrosine kinase activity inhibition rate in cell membrane fraction (Poly-Glu4-Tyr substrate)
Format in all cases: biochemical
[1] = tested on: tyrosine kinase in cell membrane fraction of ZR-75-30; details: 25 μM kinase inhibitor, 25 μM ATP
Procedure: (§1) Breast cancer cell lines shown in Table 3 were cultured in a 150 mm dish so as to be about 80% confluent, the cells were recovered using PBS and a scraper, and a cell pellet was obtained by centrifugal operation (900×g, for 5 minutes, at 4° C.). The pellet was frozen with liquid nitrogen and stored at −80° C. until preparation of the measurement sample.
(§2) 500 μl of NP40 (−) solubilized buffer (20 mM HEPES (pH 7.4)), (w/v) % glycerol, 0.2% protease inhibitor cocktail (#P8340: Sigma-Aldrich (product composition: 104 mM AEBSF, 80 μM aprotinin, 4 mM bestatin, 1.4 mM E-64, 2 mM leupeptin, 1.5 mM Pepstatin A), 50 mM NaF and 200 μM Na3VO4) was added to the cell pellet, followed by stirring for 2 seconds three times using a vortex mixer. After being allowed to stand for 10 minutes, the soluble fraction was removed by centrifugal operation (at 20000×g, for 30 minutes, at 4° C.). The obtained pellet was resuspended in 500 μl of NP40 (−) solubilized buffer, the soluble fraction was again removed by centrifugal operation (at 20000×g, for 20 minutes, at 4° C.), and the pellet was washed. The pellet was resuspended by adding 500 μl of NP40 (+) solubilized buffer (a buffer prepared by adding NP-40 to the NP40 (−) solubilized buffer at a final concentration of 1%) to the pellet, pipetting fifty times, and vortexing for 2 seconds three times. After being allowed to stand for 10 minutes, a cell membrane fraction containing a membrane protein was obtained by centrifugal operation (at 20000×g, for 40 minutes, at 4° C.). The protein concentration of the fraction was measured by DC protein assay (#500-0116 JA: Bio-Rad) and the fraction was used as a sample for kinase activity measurement. The sample was frozen with liquid nitrogen and stored at −80° C. until used for the following kinase activity measurement.
(§3) NeutrAvidin Coated Plates (HBC) (96 white plate; #15509: Pierce) were washed three times with 300 μl of TBS-T (20 mM Tris-HCl (pH 7.4)), 150 mM NaCl, 0.1% Tween), and then 100 μl of Poly-Glu4-Tyr biotin conjugate (#12440: Upstate) which had been diluted to 1 μg/ml with TBS (20 mM Tris-HCl (pH 7.4), 150 mM NaCl) was added to the wells. After shaking at 37° C. and 400 rpm for 90 minutes, the wells were washed with 300 μl of TBS-T three times and a measuring plate was obtained.
(§4) The measurement sample was diluted with a kinase buffer (20 mM HEPES (pH 7.4), 25 mM MgCl2, 1.25 mM MnCl2, 250 μM Na3VO4, 12.5 (w/v) % glycerol) so as to adjust the protein concentration to 6.25 μg/ml. The diluted measurement sample was transferred to wells of a 96 well V bottom plate. A DMSO solution (inhibitor concentration: 5 mM) containing one type of tyrosine kinase inhibitors (Inhibitors 1 to 10 shown in Table 6) was added to the wells at a ratio of 1:160 based on the diluted measurement sample solution, followed by mixing thereof. As the control, DMSO was added to the diluted measurement sample at the same ratio as the solution of the inhibitor. The used tyrosine kinase inhibitors are represented as Inhibitors 1 to 10 in Table 6.
(§5) After addition of the inhibitors, a mixed solution of the measurement sample and the inhibitor was allowed to stand at room temperature for 10 minutes. 40 μl of the mixed solution was transferred to wells of the measuring plate and 10 μl of an ATP solution (20 mM HEPES (pH 7.4), […]) as the phosphate group donor was added to the wells.
(§6) The composition of the solution in the wells is as follows: protein concentration: 5 μg/ml, 20 mM HEPES (pH 7.4), 20 mM MgCl2, 1 mM MnCl2, 200 μM Na3VO4, 10 (w/v) % glycerol, 25 μM ATP, 25 μM kinase inhibitor.
(§7) After shaking the measuring plate at 37° C. and 400 rpm for 60 minutes, the solution was removed from the measuring plate, and the wells were washed with 300 μl of TBS-T three times. 100 μl of Starting Block T20 (TBS) (#37543: Pierce) as a blocking solution was added to the wells, followed by blocking at 37° C. and 400 rpm for 10 minutes. The blocking solution was removed from the measuring plate. […]

[2] = tested on: tyrosine kinase in cell membrane fraction of MDA-MB-231; details: 25 μM kinase inhibitor, 25 μM ATP
Procedure: as §1, §2, §3, §4, §5, §6, §7

[3] = tested on: tyrosine kinase in cell membrane fraction of HCC1954; details: 25 μM kinase inhibitor, 25 μM ATP
Procedure: as §1, §2, §3, §4, §5, §6, §7

[4] = tested on: tyrosine kinase in cell membrane fraction of T47D; details: 25 μM kinase inhibitor, 25 μM ATP
Procedure: as §1, §2, §3, §4, §5, §6, §7

[5] = tested on: tyrosine kinase in cell membrane fraction of MCF7; details: 25 μM kinase inhibitor, 25 μM ATP
Procedure: as §1, §2, §3, §4, §5, §6, §7

[6] = tested on: tyrosine kinase in cell membrane fraction of MDA-MB-436; details: 25 μM kinase inhibitor, 25 μM ATP
Procedure: as §1, §2, §3, §4, §5, §6, §7

[7] = tested on: tyrosine kinase in cell membrane fraction of HS578T; details: 25 μM kinase inhibitor, 25 μM ATP
Procedure: as §1, §2, §3, §4, §5, §6, §7

[8] = tested on: tyrosine kinase in cell membrane fraction of HCC202; details: 25 μM kinase inhibitor, 25 μM ATP
Procedure: as §1, §2, §3, §4, §5, §6, §7

[9] = tested on: tyrosine kinase in cell membrane fraction of MDA-MB-453; details: 25 μM kinase inhibitor, 25 μM ATP
Procedure: as §1, §2, §3, §4, §5, §6, §7

[10] = tested on: tyrosine kinase in cell membrane fraction of MDA-MB-157; details: 25 μM kinase inhibitor, 25 μM ATP
Procedure: as §1, §2, §3, §4, §5, §6, §7

[11] = tested on: tyrosine kinase in cell membrane fraction of BT-474; details: 25 μM kinase inhibitor, 25 μM ATP
Procedure: as §1, §2, §3, §4, §5, §6, §7

[12] = tested on: tyrosine kinase in cell membrane fraction of ZR-75-1; details: 25 μM kinase inhibitor, 25 μM ATP
Procedure: as §1, §2, §3, §4, §5, §6, §7

[13] = tested on: tyrosine kinase in cell membrane fraction of UACC893; details: UACC893; 25 μM kinase inhibitor, 25 μM ATP
Procedure: as §1, §2, §3, §4, §5, §6, §7

[14] = tested on: tyrosine kinase in cell membrane fraction of MDA-MB-468; details: 25 μM kinase inhibitor, 25 μM ATP
Procedure: as §1, §2, §3, §4, §5, §6, §7

[15] = tested on: tyrosine kinase in cell membrane fraction of CAMA-1; details: 25 μM kinase inhibitor, 25 μM ATP
Procedure: as §1, §2, §3, §4, §5, §6, §7

[16] = tested on: tyrosine kinase in cell membrane fraction of HCC1419; details: 25 μM kinase inhibitor, 25 μM ATP
Procedure: as §1, §2, §3, §4, §5, §6, §7

SMILES: COc1cc2ncnc(Nc3cccc(Cl)c3)c2cc1OC [Inhibitor 1]
- Inhibition rate [1]: 20.1%
- Inhibition rate [2]: 56.4%
- Inhibition rate [3]: 39.4%
- Inhibition rate [4]: 29.1%
- Inhibition rate [5]: 48.0%
- Inhibition rate [6]: 33.9%
- Inhibition rate [7]: 53.8%
- Inhibition rate [8]: 29.7%
- Inhibition rate [9]: 39.8%
- Inhibition rate [10]: 45.0%
- Inhibition rate [11]: 26.0%
- Inhibition rate [12]: 20.8%
- Inhibition rate [13]: 21.2%
- Inhibition rate [14]: 77.4%
- Inhibition rate [15]: 14.3%
- Inhibition rate [16]: 34.9%

SMILES: COc1cc2c(cc1OC)-c1[nH]nc(Nc3cccc(F)c3)c1C2 [Inhibitor 6]
- Inhibition rate [1]: 27.0%
- Inhibition rate [2]: 45.7%
- Inhibition rate [3]: 41.5%
- Inhibition rate [4]: 37.5%
- Inhibition rate [5]: 44.4%
- Inhibition rate [6]: 36.1%
- Inhibition rate [7]: 49.7%
- Inhibition rate [8]: 27.1%
- Inhibition rate [9]: 28.9%
- Inhibition rate [10]: 49.0%
- Inhibition rate [11]: 30.7%
- Inhibition rate [12]: 32.5%
- Inhibition rate [13]: 28.0%
- Inhibition rate [14]: 1.4%
- Inhibition rate [15]: 15.9%
- Inhibition rate [16]: 33.5%

SMILES: CS(=O)(=O)CCNCc1nc(-c2ccc3ncnc(Nc4ccc(OCc5cccc(F)c5)c(Cl)c4)c3c2)cs1.Cl.Cl [Inhibitor 5, N-[3-chloro-4-[(3-fluorophenyl)methoxy]phenyl]-6-[2-[[[2-(methylsulfonyl)ethyl]amino]methyl]-4-thiazolyl]-4-quinazolineamine dihydrochloride]
- Inhibition rate [1]: 64.4%
- Inhibition rate [2]: 58.2%
- Inhibition rate [3]: 59.5%
- Inhibition rate [4]: 50.9%
- Inhibition rate [5]: 75.4%
- Inhibition rate [6]: 68.5%
- Inhibition rate [7]: 64.2%
- Inhibition rate [8]: 66.2%
- Inhibition rate [9]: 70.4%
- Inhibition rate [10]: 56.1%
- Inhibition rate [11]: 42.7%
- Inhibition rate [12]: 44.8%
- Inhibition rate [13]: 48.4%
- Inhibition rate [14]: 75.4%
- Inhibition rate [15]: 48.6%
- Inhibition rate [16]: 63.6%

SMILES: Cc1[nH]c(/C=C2\C(=O)Nc3ccc(S(=O)(=O)N(C)c4cccc(Cl)c4)cc32)c(C)c1C(=O)N1CCN(C)CC1 [Inhibitor 9]
- Inhibition rate [1]: 65.1%
- Inhibition rate [2]: 68.0%
- Inhibition rate [3]: 65.7%
- Inhibition rate [4]: 42.5%
- Inhibition rate [5]: 64.3%
- Inhibition rate [6]: 74.0%
- Inhibition rate [7]: 70.6%
- Inhibition rate [8]: 69.1%
- Inhibition rate [9]: 64.4%
- Inhibition rate [10]: 56.8%
- Inhibition rate [11]: 54.6%
- Inhibition rate [12]: 53.9%
- Inhibition rate [13]: 56.9%
- Inhibition rate [14]: 65.0%
- Inhibition rate [15]: 60.2%
- Inhibition rate [16]: 70.7%

SMILES: CN(C)c1cc2c(Nc3ccc4c(cnn4Cc4ccccc4)c3)ncnc2cn1 [Inhibitor 4, N4-(1-benzyl-1H-indazol-5-yl)-N6,N6-dimethyl-pyrido-[3,4-d]-pyrimidine-4,6-diamine]
- Inhibition rate [1]: 20.9%
- Inhibition rate [2]: 38.9%
- Inhibition rate [3]: 23.2%
- Inhibition rate [4]: 27.0%
- Inhibition rate [5]: 12.1%
- Inhibition rate [6]: 26.3%
- Inhibition rate [7]: 32.1%
- Inhibition rate [8]: 21.3%
- Inhibition rate [9]: 27.9%
- Inhibition rate [10]: 29.2%
- Inhibition rate [11]: 24.6%
- Inhibition rate [12]: 7.0%
- Inhibition rate [13]: −3.1%
- Inhibition rate [14]: 71.6%
- Inhibition rate [15]: 7.3%
- Inhibition rate [16]: 23.8%

SMILES: CN1CCC(Nc2ncc3ncnc(Nc4ccc(F)c(Cl)c4)c3n2)CC1 [Inhibitor 2]
- Inhibition rate [1]: 4.4%
- Inhibition rate [2]: 23.5%
- Inhibition rate [3]: 19.7%
- Inhibition rate [4]: 7.7%
- Inhibition rate [5]: 19.9%
- Inhibition rate [6]: 19.0%
- Inhibition rate [7]: 20.8%
- Inhibition rate [8]: 7.7%
- Inhibition rate [9]: 19.9%
- Inhibition rate [10]: 14.3%
- Inhibition rate [11]: 10.5%
- Inhibition rate [12]: 9.0%
- Inhibition rate [13]: 4.1%
- Inhibition rate [14]: 52.1%
- Inhibition rate [15]: −3.4%
- Inhibition rate [16]: 6.2%

SMILES: Cc1cc(F)c(Nc2ncnc3cc(OCc4ccccc4)ccc23)cc1O.Cl [Inhibitor 8]
- Inhibition rate [1]: 10.1%
- Inhibition rate [2]: 12.8%
- Inhibition rate [3]: 4.1%
- Inhibition rate [4]: 38.1%
- Inhibition rate [5]: 45.7%
- Inhibition rate [6]: 12.1%
- Inhibition rate [7]: 5.5%
- Inhibition rate [8]: 11.9%
- Inhibition rate [9]: 17.7%
- Inhibition rate [10]: 8.3%
- Inhibition rate [11]: 18.0%
- Inhibition rate [12]: 0.6%
- Inhibition rate [13]: 3.3%
- Inhibition rate [14]: 7.1%
- Inhibition rate [15]: 8.1%
- Inhibition rate [16]: 14.7%
